Measurements reported in US12029768B2, “Probiotics useful for eradicating helicobacter pylori infection” (DACF S.r.l., priority 2018, dated 2024).
Where two headings read alike, the source gives them in different places.

System: H. pylori
Experiment: Checkerboard method, adjuvant effect of probiotic supernatant on antibiotic MIC/MBC
Type: cell-based, Helicobacter pylori
Settings: for MBC / MIC: Helicobacter pylori; for MBC: read-out: MBC towards the H. pylori strain; for MIC: read-out: MIC towards the H. pylori strain
[1] = probiotic supernatant (L. acidophilus La-14) added to antibiotic

`CC[C@H]1OC(=O)[C@H](C)[C@@H](O[C@H]2C[C@@](C)(OC)[C@@H](O)[C@H](C)O2)[C@H](C)[C@@H](O[C@@H]2O[C@H](C)C[C@H](N(C)C)[C@H]2O)[C@](C)(OC)C[C@@H](C)C(=O)[C@H](C)[C@@H](O)[C@]1(C)O` [Clarithromycin, clarithromycin] was tested, and the MBC (antibiotic alone) was 24 µg/mL, the MIC (antibiotic alone) was 12 µg/mL and the MBC [1] was 0.25 µg/mL. The MIC [1] was 0.125 µg/mL, the “MIC with probiotic supernatant as fraction of the original MIC” value [1] was 1/100 and the “increase of antibiotic activity against H. pylori” value [1] was 100 folds.

For `CC1(C)S[C@@H]2[C@H](NC(=O)[C@H](N)c3ccc(O)cc3)C(=O)N2[C@H]1C(=O)O` [Amoxicillin, amoxicillin], the MBC (antibiotic alone) was 0.5 µg/mL, the MIC (antibiotic alone) was 0.25 µg/mL and the MBC [1] was 0.0005 µg/mL. The MIC [1] was 0.00025 µg/mL, the “MIC with probiotic supernatant as fraction of the original MIC” value [1] was 1/1000 and the “increase of antibiotic activity against H. pylori” value [1] was 1000 folds.
